Reference: ChEMBL document CHEMBL1158392, “Synthesis and biological evaluation of abietic acid derivatives” (Eur J Med Chem, 2009)
Converted amounts (≈) assume the structure as drawn. The source made the active and inactive calls. The rule behind the calls is not given here.

How the values were obtained:
Aspergillus niger = experiment: Antifungal activity against Aspergillus niger ATCC 10124 upto 100 ug/mL after 48 hrs by CLSI M38-A broth dilution method; format: functional, organism-based
Aspergillus fumigatus [1] = experiment: Antifungal activity against Aspergillus fumigatus ATCC 204305 upto 100 ug/mL after 48 hrs by CLSI M38-A broth dilution method; format: functional, organism-based
Human alphaherpesvirus 1 [2] = experiment: Antiviral activity against HSV1 infected in human HeLa cells assessed as viral reduction factor preincubated for 0.5 hrs before infection measured after 36 hrs by end point titration technique relative to control; format: functional
[3] = Cytotoxicity against african green monkey Vero cells after 48 hrs by MTT assay; format: cell-based; details: chlorocebus sabaeus
Candida parapsilosis = experiment: Antifungal activity against Candida parapsilosis ATCC 22019 upto 100 ug/mL after 24 hrs by AFST-EUCAST method; format: functional, organism-based
Candida albicans = experiment: Antifungal activity against Candida albicans ATCC 10231 upto 100 ug/mL after 24 hrs by AFST-EUCAST method; format: functional, organism-based
Pichia kudriavzevii = experiment: Antifungal activity against Candida krusei ATCC 6258 upto 100 ug/mL after 24 hrs by AFST-EUCAST method; format: functional, organism-based
[4] = Selectivity index, ratio of CC50 for african green monkey Vero cells to CC50 for human HeLa cells; format: functional
Aspergillus terreus = experiment: Antifungal activity against Aspergillus terreus CDC 317 upto 100 ug/mL after 48 hrs by CLSI M38-A broth dilution method; format: functional, organism-based
Human alphaherpesvirus 1 [5] = experiment: Antiviral activity against HSV1 infected in human HeLa cells assessed as maximum dose required for highest viral reduction factor preincubated for 0.5 hrs before infection measured after 36 hrs by end point titration technique; format: functional
Candida tropicalis = experiment: Antifungal activity against Candida tropicalis CECT 11901 upto 100 ug/mL after 24 hrs by AFST-EUCAST method; format: functional, organism-based
Aspergillus flavus = experiment: Antifungal activity against Aspergillus flavus ATCC 204304 upto 100 ug/mL after 48 hrs by CLSI M38-A broth dilution method; format: functional, organism-based
HeLa [6] = experiment: Cytotoxicity against human HeLa cells after 48 hrs by MTT assay; format: functional
HeLa [7] = experiment: Cytotoxicity against human HeLa cells; format: cell-based
Aspergillus fumigatus [8] = experiment: Antifungal activity against Aspergillus fumigatus ATCC 204305 after 48 hrs by CLSI M38-A broth dilution method; format: functional; details: ATCC 204305, 48 h

Structure (SMILES)	MIC (Aspergillus niger)	MIC (Aspergillus fumigatus [1])	Activity (Human alphaherpesvirus 1 [2])	CC50 at 48 h [3]	MIC (Candida parapsilosis)	MIC (Candida albicans)	MIC (Pichia kudriavzevii)	Selectivity Index [4]	MIC (Aspergillus terreus)	Activity (Human alphaherpesvirus 1 [5])	MIC (Candida tropicalis)	MIC (Aspergillus flavus)	CC50 (HeLa [6])	CC100 (HeLa [7])	MIC (Aspergillus fumigatus [8])
COC(=O)[C@]1(C)CCC[C@@]2(C)[C@H]1CC=C1C=C(C(C)C)CC[C@@H]12 [METHYL ABIETATE]	inactive	inactive	10	49.4 µg/mL (≈ 156 µM)	inactive	inactive	inactive	13.7	inactive	6.25 µg/mL	inactive	inactive	3.6 µg/mL (≈ 11.4 µM)	50 µg/mL	–
CC[C@]1(O)C[C@H]2CN(CCc3c([nH]c4ccccc34)[C@@](C(=O)OC)(c3cc4c(cc3OC)N(C=O)[C@H]3[C@@](O)(C(=O)OC)[C@H](OC(C)=O)[C@]5(CC)C=CCN6CC[C@]43[C@@H]65)C2)C1 [VINCRISTINE]	–	–	–	1.1 µg/mL (≈ 1.33 µM)	–	–	–	22	–	–	–	–	0.05 µg/mL (≈ 0.0606 µM)	–	–
CC(C)C1=CC2=CC[C@@H]3[C@](C)(CCC[C@@]3(C)C=O)[C@H]2CC1	inactive	–	10	31.5 µg/mL (≈ 110 µM)	inactive	inactive	inactive	5.6	inactive	12.5 µg/mL	inactive	inactive	5.6 µg/mL (≈ 19.5 µM)	> 50 µg/mL	50 µg/mL (≈ 175 µM)
CC(C)=C1CCC2=C(CC[C@H]3[C@](C)(C(=O)O)CCC[C@]23C)C1	inactive	inactive	10	43.9 µg/mL (≈ 145 µM)	inactive	inactive	inactive	0.8	inactive	100 µg/mL	inactive	inactive	53.1 µg/mL (≈ 176 µM)	> 100 µg/mL	–
CC(C)=C1CCC2=C(CC[C@H]3[C@](C)(C=O)CCC[C@]23C)C1	inactive	inactive	inactive	55.3 µg/mL (≈ 193 µM)	inactive	inactive	inactive	1.6	inactive	–	inactive	inactive	33.4 µg/mL (≈ 117 µM)	> 100 µg/mL	–
COC(=O)[C@]1(C)CCC[C@]2(C)C3=C(CC[C@@H]12)CC(=C(C)C)CC3	inactive	inactive	inactive	19.2 µg/mL (≈ 60.7 µM)	inactive	inactive	inactive	0.4	inactive	–	inactive	inactive	46.6 µg/mL (≈ 147 µM)	100 µg/mL	–
CC(C)C1=CC2=CC[C@H]3[C@](C)(CO)CCC[C@]3(C)[C@H]2CC1	inactive	inactive	10	12.7 µg/mL (≈ 44 µM)	inactive	inactive	inactive	2.4	inactive	6.25 µg/mL	inactive	inactive	5.2 µg/mL (≈ 18 µM)	25 µg/mL	–
CC(C)=C1CCC2=C(CC[C@H]3[C@](C)(CO)CCC[C@]23C)C1	inactive	inactive	inactive	20.2 µg/mL (≈ 70 µM)	inactive	inactive	inactive	1	inactive	–	inactive	inactive	19.7 µg/mL (≈ 68.3 µM)	100 µg/mL	–
Nc1nc2c(ncn2COCCO)c(=O)[nH]1 [ACYCLOVIR]	–	–	10	–	–	–	–	–	–	6 µg/mL	–	–	–	> 600 µg/mL	–
CC(C)C1=CC2=CC[C@@H]3[C@](C)(CCC[C@@]3(C)C(=O)O)[C@H]2CC1 [ABIETIC ACID]	inactive	inactive	inactive	52.5 µg/mL (≈ 174 µM)	inactive	inactive	inactive	3.5	inactive	–	inactive	inactive	14.9 µg/mL (≈ 49.3 µM)	> 100 µg/mL	–
